In PubChem BioAssay AID2060616 (Molecular Pharmacology Branch, DTP, NCI, 2025):
pIC50: −log10 of the molar value.

Tested on: 377384-186-R-J1-PDC complex spheroid viability
Experiment: Anticancer human tumor 377384-186-R-J1-PDC patient-derived pancreatic carcinoma cell line growth inhibition [CLK]
Conditions: for pIC50: curve of first compound; for viability, T/C: stronger effect = lower value
Method in brief: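 Patient-derived tumor cells grown as complex spheroids with HUVEC endothelial cells and mesenchymal stem cells, treated with drug combinations. Concentrations descend in half-log steps from near clinical Cmax, or from 10 microM if Cmax unknown.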

[1] = second compound 0.0316 µM, first compound 0.00316 µM
[2] = second compound 0.0316 µM, first compound 0.01 µM
[3] = second compound 0.0316 µM, first compound 0.0316 µM
[4] = second compound 0.0316 µM, first compound 0.1 µM
[5] = second compound 0.1 µM, first compound 0.00316 µM
[6] = second compound 0.1 µM, first compound 0.01 µM
[7] = second compound 0.1 µM, first compound 0.0316 µM
[8] = second compound 0.1 µM, first compound 0.1 µM
[9] = second compound 0.316 µM, first compound 0.00316 µM
[10] = second compound 0.316 µM, first compound 0.01 µM
[11] = second compound 0.316 µM, first compound 0.0316 µM
[12] = second compound 0.316 µM, first compound 0.1 µM
[13] = second compound 1 µM, first compound 0.00316 µM
[14] = second compound 1 µM, first compound 0.01 µM
[15] = second compound 1 µM, first compound 0.0316 µM
[16] = second compound 1 µM, first compound 0.1 µM
[17] = second compound 3.16 µM, first compound 0.00316 µM
[18] = second compound 3.16 µM, first compound 0.01 µM
[19] = second compound 3.16 µM, first compound 0.0316 µM
[20] = second compound 3.16 µM, first compound 0.1 µM
[21] = second compound 10 µM, first compound 0.00316 µM
[22] = second compound 10 µM, first compound 0.01 µM
[23] = second compound 10 µM, first compound 0.0316 µM
[24] = second compound 10 µM, first compound 0.1 µM
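Also: spheroids exposed to agents for 7 days before reading.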
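For viability, T/C in this document: luminescence signal used as a stand-in for viable cells.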

SMILES: CCc1c2c(nc3ccc(O)cc13)-c1cc3c(c(=O)n1C2)COC(=O)[C@]3(O)CC + CN1CCN(c2cc(C(=O)Nc3cc4cc(-c5cnn(C)c5)ccc4cn3)ccn2)CC1
- pIC50 (second compound 0.0316 µM): > 8.50
- pIC50 (second compound 0.1 µM): > 8.50
- pIC50 (second compound 0.316 µM): > 8.50
- pIC50 (second compound 1 µM): > 8.50
- pIC50 (second compound 3.16 µM): > 8.50
- pIC50 (second compound 10 µM): > 8.50
- viability, T/C [1]: 38.2%
- viability, T/C [2]: 16.4%
- viability, T/C [3]: 9%
- viability, T/C [4]: 3.5%
- viability, T/C (second compound 0.0316 µM, first compound 0.316 µM): 2%
- viability, T/C (second compound 0.0316 µM, first compound 1 µM): 0.73%
- viability, T/C [5]: 31.7%
- viability, T/C [6]: 18.6%
- viability, T/C [7]: 8.13%
- viability, T/C [8]: 3.62%
- viability, T/C (second compound 0.1 µM, first compound 0.316 µM): 1.47%
- viability, T/C (second compound 0.1 µM, first compound 1 µM): 0.71%
- viability, T/C [9]: 18.3%
- viability, T/C [10]: 15%
- viability, T/C [11]: 7.22%
- viability, T/C [12]: 4.37%
- viability, T/C (second compound 0.316 µM, first compound 0.316 µM): 1.79%
- viability, T/C (second compound 0.316 µM, first compound 1 µM): 0.66%
- viability, T/C [13]: 0.56%
- viability, T/C [14]: 0.36%
- viability, T/C [15]: 1.07%
- viability, T/C [16]: 0.19%
- viability, T/C (second compound 1 µM, first compound 0.316 µM): 0.14%
- viability, T/C (second compound 1 µM, first compound 1 µM): 0.3%
- viability, T/C [17]: 0.23%
- viability, T/C [18]: 0.3%
- viability, T/C [19]: 0.53%
- viability, T/C [20]: 0.25%
- viability, T/C (second compound 3.16 µM, first compound 0.316 µM): 0.38%
- viability, T/C (second compound 3.16 µM, first compound 1 µM): 0.85%
- viability, T/C [21]: 0.27%
- viability, T/C [22]: 1.05%
- viability, T/C [23]: 0.38%
- viability, T/C [24]: 0.27%
- viability, T/C (second compound 10 µM, first compound 0.316 µM): 0.23%
- viability, T/C (second compound 10 µM, first compound 1 µM): 0.35%

SMILES: Cn1ncnc1[C@H]1c2n[nH]c(=O)c3cc(F)cc(c23)N[C@@H]1c1ccc(F)cc1 + CN1CCN(c2cc(C(=O)Nc3cc4cc(-c5cnn(C)c5)ccc4cn3)ccn2)CC1
- pIC50 (second compound 0.0316 µM): < 7.00
- pIC50 (second compound 0.1 µM): 7.30
- pIC50 (second compound 0.316 µM): > 9.50
- pIC50 (second compound 1 µM): > 9.50
- pIC50 (second compound 3.16 µM): > 9.50
- pIC50 (second compound 10 µM): > 9.50
- viability, T/C (second compound 0.0316 µM, first compound 0.000316 µM): 90.4%
- viability, T/C (second compound 0.0316 µM, first compound 0.001 µM): 77.8%
- viability, T/C [1]: 74.8%
- viability, T/C [2]: 65.6%
- viability, T/C [3]: 55.4%
- viability, T/C [4]: 52.1%
- viability, T/C (second compound 0.1 µM, first compound 0.000316 µM): 88.1%
- viability, T/C (second compound 0.1 µM, first compound 0.001 µM): 81.2%
- viability, T/C [5]: 70.4%
- viability, T/C [6]: 58.9%
- viability, T/C [7]: 53.9%
- viability, T/C [8]: 46%
- viability, T/C (second compound 0.316 µM, first compound 0.000316 µM): 21.2%
- viability, T/C (second compound 0.316 µM, first compound 0.001 µM): 23.7%
- viability, T/C [9]: 25.9%
- viability, T/C [10]: 22.4%
- viability, T/C [11]: 21.9%
- viability, T/C [12]: 18.6%
- viability, T/C (second compound 1 µM, first compound 0.000316 µM): 0.86%
- viability, T/C (second compound 1 µM, first compound 0.001 µM): 0.77%
- viability, T/C [13]: 1.08%
- viability, T/C [14]: 0.85%
- viability, T/C [15]: 0.82%
- viability, T/C [16]: 1.53%
- viability, T/C (second compound 3.16 µM, first compound 0.000316 µM): 0.25%
- viability, T/C (second compound 3.16 µM, first compound 0.001 µM): 0.59%
- viability, T/C [17]: 1.07%
- viability, T/C [18]: 0.33%
- viability, T/C [19]: 0.69%
- viability, T/C [20]: 0.48%
- viability, T/C (second compound 10 µM, first compound 0.000316 µM): 0.45%
- viability, T/C (second compound 10 µM, first compound 0.001 µM): 1.52%
- viability, T/C [21]: 0.56%
- viability, T/C [22]: 1.45%
- viability, T/C [23]: 0.51%
- viability, T/C [24]: 0.39%
